Laboratory results reported in US7253286B2, “Nitrogen-containing aromatic derivatives” (Eisai Co., Ltd, priority 2000, dated 2007).

What follows are compounds tested on Human Umbilical Vein Endothelial Cells (HUVECs) (assay: Inhibition against sandwich tube formation by vascular endothelial cells in response to stimulation by VEGF). Conditions: HUVEC in collagen gel sandwich, stimulation by VEGF (25 ng/ml VEGF and 10 ng/ml EGF), 4th day, total tube length, read-out: IC50 (concentration required for 50% inhibition of tube formation).
Type: cell-based
Method: Inhibition Against Sandwich Tube Formation by Vascular Endothelial Cells in Response to Stimulation by Angiogenic Factor
Human Umbilical Vein Endothelial Cells (HUVECS) were isolated by the same method as in Pharmacological Test Example 1, and were cultured in a 5% CO2 incubator (37° C.) using EGM-2 medium (purchased from Clonetics Corp.) until the cells reached confluency.
An ice-cooled mixture of collagen: 5× RPMI 1640: reconstitution buffer (all purchased from Nitta Gelatin, Inc.) at 7:2:1 was dispensed at 0.4 ml into each well of a 24-well plate, and then stationed for 40 minutes in a 5% CO2 incubator (37° C.) for gelling. The HUVECs were recovered using trypsin-EDTA and then suspended in human endothelial serum free medium (SFM, purchased from GIBCO BRL) containing added angiogenic factors [20 ng/ml FGF2 (purchased from GIBCO BRL) and 10 ng/ml EGF (purchased from GIBCO BRL), or 25 ng/ml VEGF (purchased from Wako Pure Chemical Industries Co., Ltd.) and 10 ng/ml EGF, or 30 ng/ml HGF (purchased from R&D Co.) and 10 ng/ml EGF], and the cell suspension was added at 0.4 ml to each well (with the cell counts differing slightly according to the HUVEC lot), and cultured overnight in a 5% CO2 incubator (37° C.). On the following day, the medium on the upper layer was aspirated off, and then 0.4 ml of an ice-cooled mixture of collagen: 5× RPMI 1640: reconstitution buffer (all purchased from Nitta Gelatin, Inc.) at 7:2:1 was superposed into each well prior to stationing for 4 hours in a 5% CO2 incubator (37° C.) for gelling. After adding 1.5 ml of an SFM solution containing each of the aforementioned angiogenic factors and a diluted test substance onto the upper layer, culturing was performed in a 5% CO2 incubator (37° C.). Upon aspirating off the culture supernatant in each well on the 4th day after addition of the test substance, 0.4 ml of a 3.3 mg/ml MTT solution dissolved in PBS (purchased from Sigma Corp.) was added to each well and culturing was performed for approximately 2 hours in a 5% CO2 incubator (37° C.). The tubes formed in the collagen gel of each well were stained by the MTT, the tube images were loaded into a computer (Macintosh), and the total length of the tubes was determined by image analysis software “MacScope” (purchased from Mitani Corp.). The ratio of the total length of the tubes formed in the well containing the test substance with respect to the total length of the tubes formed in the well containing no test substance was expressed as a percentage, and the concentration of each test substance required for 50% inhibition of tube formation (IC50) was determined from the ratio value.

| Compound | IC50 |
| --- | --- |
| COCCNC(=O)c1cc2c(Oc3ccc(NC(=O)NC4CC4)c(Cl)c3)ccnc2cc1OCCOC [Example 249, N6-(2-Methoxyethyl)-4-(3-chloro-4-{[(cyclopropylamino)carbonyl]amino}phenoxy)-7-(2-methoxyethoxy)-6-quinolinecarboxamide] | 1.6 nM |
| CCN(CC)CCCOc1cc2nccc(Oc3ccc(NC(=O)NC4CC4)c(F)c3)c2cc1C(N)=O [Example 372, 4-(4-(Cyclopropylaminocarbonyl)amino-3-fluorophenoxy)-7-(3-(N,N-diethylamino)propoxy)-6-quinolinecarboxamide] | 44 nM |
| COc1cc2nccc(Oc3ccc(NC(=O)NC4CC4)c(C)c3C)c2cc1C(N)=O [Example 490, N-[4-(6-Carbamoyl-7-methoxy-4-quinolyl)oxy-2,3-dimethylphenyl]-N′-cyclopropylurea] | 26 nM |
| CCN(CC)C[C@@H](O)COc1ccc(-c2cc3c(Oc4ccc(NC(=O)NC5CC5)c(Cl)c4)ncnc3[nH]2)cc1 [Example 157] | 0.9 nM |
| CN1CCC(C(=O)Nc2cc(Oc3ccc(NC(=O)Nc4ccc(F)cc4)c(Cl)c3)ccn2)CC1 [Example 202, N4-[4-(3-Chloro-4-{[(4-fluoroanilino)carbonyl]amino}phenoxy)-2-pyridyl]-1-methyl-4-piperidinecarboxamide] | 15 nM |
| N#Cc1cc2c(Oc3ccc(NC(=O)Nc4nccs4)c(F)c3)ccnc2cc1OCC1CCNCC1 [Example 503, N-{4-[6-Cyano-7-(piperidin-4-ylmethoxy)quinolin-4-yloxy]-2-fluorophenyl}-N′-(2-thiazolyl)urea] | 6.4 nM |
| COCCOc1cc2nccc(Sc3ccc(NC(=O)Nc4ccccc4F)s3)c2cc1C#N [Example 256, 1-{5-[6-Cyano-7-(2-methoxyethoxy)quinolin-4-ylsulfanyl]thiophen-2-yl}-3-(2-fluorophenyl)urea] | 36 nM |
| N#Cc1cc2c(Oc3ccc(NC(=O)Nc4ccc(F)cc4)c(F)c3)ccnc2cc1OCC(O)CN1CCCC1 (centres unmarked) [Example 492, N-{4-[6-Cyano-7-(2-hydroxy-3-(pyrrolidin-1-yl)propoxy)quinolin-4-yloxy]-2-fluorophenyl}-N′-(4-fluorophenyl)urea] | 7.2 nM |
| CS(=O)(=O)CCOc1cc2nccc(Oc3ccc(NC(=O)Nc4ccc(F)cc4)cc3)c2cc1C#N [Example 59, N-(4-(6-Cyano-7-(2-(methylsulfonyl)ethoxy)-4-quinolyl)oxyphenyl)-N′-(4-fluorophenyl)urea] | 170 nM |
| CN1CCC(COc2cc3nccc(Oc4ccc(NC(=O)Nc5nccs5)c(F)c4)c3cc2C#N)CC1 [Example 504, N-{4-[6-Cyano-7-(1-methylpiperidin-4-ylmethoxy)quinolin-4-yloxy]-2-fluorophenyl}-N′-(2-thiazolyl)urea] | 4.6 nM |
| CNC(=O)c1cc2c(Oc3ccc(NC(=O)NC4CC4)c(Cl)c3)ccnc2cc1OC [Example 442, N6-Methyl-4-(3-chloro-4-(((cyclopropylamino)carbonyl)amino)phenoxy)-7-methoxy-6-quinolinecarboxamide] | 7.2 nM |
| CCOCCCNC(=O)n1ccc2cc(Oc3ccnc4cc(OC)c(C(N)=O)cc34)ccc21 [Example 326, 6-Carbamoyl-4-[1-(3-ethoxypropylcarbamoyl)1H-indol-5-yloxy]-7-methoxyquinoline] | 1 nM |
| COc1cc2nccc(Oc3ccc4c(ccn4C(=O)NCCCCl)c3)c2cc1C(N)=O [Example 325, 6-Carbamoyl-4-[1-(3-chloropropylcarbamoyl)1H-indol-5-yloxy]-7-methoxyquinoline] | 1 nM |
| CCN(CC)CC(O)COc1cc2nccc(Oc3ccc(NC(=O)Nc4ccc(F)cc4)c(F)c3)c2cc1C#N (centres unmarked) [Example 493, N-{4-[6-Cyano-7-(3-diethylamino-2-hydroxypropoxy)quinolin-4-yloxy]-2-fluorophenyl}-N′-(4-fluorophenyl)urea] | 9 nM |
| N#Cc1cc2c(Oc3ccc(NC(=O)Nc4ccc(F)cc4)c(F)c3)ccnc2cc1OCC(O)CN1CCOCC1 (centres unmarked) [Example 494, N-{4-[6-Cyano-7-(2-hydroxy-(3-morpholin-4-yl)propoxy)quinolin-4-yloxy]-2-fluorophenyl}-N′-(4-fluorophenyl)urea] | 9.3 nM |
| COCCOc1cc2nccc(Oc3ccc(NC(=O)NC4CC4)cc3)c2cc1C#N [Example 23, N-(4-(6-cyano-7-(2-methoxyethoxy)-4-quinolyl)oxyphenyl)-N′-cyclopropylurea] | 100 nM |
| CCNC(=O)n1ccc2cc(Oc3ccnc4cc(OC)c(C(=O)NCCF)cc34)ccc21 [Example 518] | 1.3 nM |
| N#Cc1cc2c(Oc3ccc(NC(=O)Nc4ccc(F)cc4)c(F)c3)ccnc2cc1OC[C@H](O)CN1CCCCC1 [Example 497, N-(4-{6-Cyano-7-[(2R)-2-hydroxy-3-(piperidin-1-yl)propoxy]quinolin-4-yloxy}-2-fluorophenyl)-N′-(4-fluorophenyl)urea] | 4.6 nM |
| C#Cc1c(Oc2ccc(NC(=O)Nc3ccc(F)cc3)cc2)ccnc1N(C(=O)C1CC1)C(=O)C1CC1 [Example 186, N1-Cyclopropylcarbonyl-N1-[3-(1-ethynyl)-4-(4-{[(4-fluoroanilino)carbonyl]amino}phenoxy)-2-pyridyl]-1-cyclopropanecarboxamide] | 23 nM |
| CCN(CC)C[C@@H](O)COc1cc2nccc(Oc3ccc(NC(=O)Nc4ccc(F)cc4)cc3)c2cc1C#N [Example 455, N-(4-((6-Cyano-7-(((2R)-3-(diethylamino)-2-hydroxypropyl)oxy)-4-quinolyl)oxy)phenyl)-N′-(4-fluorophenyl)urea] | 7.8 nM |
| C#CCNC(=O)c1cc2c(Oc3ccc(NC(=O)NC4CC4)c(Cl)c3)ccnc2cc1OC [Example 445, N6-Propargyl-4-(3-chloro-4-(((cyclopropylamino)carbonyl)amino)phenoxy)-7-methoxy-6-quinolinecarboxamide] | 6.2 nM |
| COc1cc2nccc(Oc3ccc(NC(=O)NC4CC4)c(Cl)c3)c2cc1C(=O)NCCC#N [Example 440, N6-(2-Cyanoethyl)-4-(3-chloro-4-(((cyclopropylamino)carbonyl)amino)phenoxy)-7-methoxy-6-quinolinecarboxamide] | 1.4 nM |
| CN1CCC(CC(=O)Nc2cc(Oc3ccc4c(ccn4C(=O)Nc4ccccc4)c3)ccn2)CC1 [Example 204, N1-Phenyl-5-[(2-{[2-(1-methyl-4-piperidyl)acetyl]amino}-4-pyridyl)oxy]-1H-1-indolecarboxamide] | 0.9 nM |
| COCCNC(=O)c1cc2c(Oc3ccc(N(C)C(=O)Nc4ccc(F)cc4)cc3)ccnc2cc1OC [Example 436, N6-(2-Methoxyethyl)-4-(4-(((4-fluoroanilino)carbonyl)(methyl)amino)phenoxy)-7-methoxy-6-quinolinecarboxamide] | 22 nM |
| COCCOc1cc2nccc(Oc3ccc(NC(=O)Nc4cccc(C#N)c4)cc3)c2cc1C#N [Example 19, N-(4-(6-Cyano-7-(2-methoxyethoxy)-4-quinolyl)oxyphenyl)-N′-(3-cyanophenyl)urea] | 28 nM |
| COc1cc2nccc(Oc3ccc(NC(=O)NC4CC4)c(Cl)c3)c2cc1C(=O)Nc1ncc[nH]1 [Example 405, N6-(1H-2-Imidazolyl)-4-(3-chloro-4-(((cyclopropylamino)carbonyl)amino)phenoxy)-7-methoxy-6-quinolinecarboxamide] | 28 nM |
